Tests used:
[1] = Dilution stability of Cas9 RNP nanocarriers (DLS); type: physicochemical; details: prepared at 375 nM RNP, diluted with HBG, 0.1 nM RNP
Method: LogD7.4 determination of xenopeptides
Octanol-water partition coefficient D at pH 7.4 (logD7.4) was determined as previously reported with slight modification.5
Scheme S3 illustrates the logD7.4 determination procedures of all xenopeptides in this study. Briefly, 10 μL of 10 mg/mL xenopeptides in water were diluted with 90 μL HEPES buffer (20 mM, pH 7.4) in 1.5 mL reaction tubes. 100 μL n-octanol were then added. The tubes were shaken at 1400 rpm for 24 h. Afterwards, the tubes were centrifuged followed by storage at 4 °C for 1 h to separate n-octanol and water phases. 70 μL of each phase were injected for HPLC analysis. The extinction at 280 nm was monitored and the peak area (A) of the xenopeptides was calculated. LogD7.4 was calculated as log(Aoctanol / Awater).
All experiments were performed in triplicate.
Preparation of Cas9 RNP and Cas9 RNP/ssDNA nanocarriers […]
The hydrodynamic size, PDI and zeta potential of Cas9 RNP nanocarriers were measured by DLS using a Zetasizer Nano ZS (Malvern Instruments, UK). […] The hydrodynamic size of Cas9 RNP nanocarriers containing 1.25 μg Cas9 protein and 0.25 μg sgRNA (Cas9/sgRNA, 1:1 molar ratio) in 100 μL HBG was measured.
Afterwards, 700 μL HEPES buffer (20 mM, pH 7.4) were added to each sample and the soluti on was mixed for the zeta potential measurement. […] The size and zeta potential of diluted samples were measured as described above. […]

HeLa WT cells [2] = assay: Cellular uptake of Cas9 RNP nanocarriers (flow cytometry); type: cell-based; details: 75 nM RNP, 20 % ATTO488-sgRNA, 4 h, flow cytometry MFI
Method: (§1) sgRNA amount in naked Cas9/sgRNA ribonucleoproteins (Cas9 RNPs) or Cas9 RNP nanocarriers were determined using a Quant-iTTM RiboGreen® RNA assay kit (Invitrogen, CA, USA). 50 μL of naked Cas9 RNPs or Cas9 RNP nanocarriers con-taining 250 ng Cas9 protein and 50 ng sgRNA were mixed with 50 μL of TE buffer and were added to the 96-well plate. The plate was incubated for 10 min. Afterwards, 100 μL of Ribogreen solution (diluted 1:100 in TE buffer) was added to each well.
(§2) The plate was incubated for another 5 min. Ribogreen fluorescence intensity was detected using a microplate reader (Spectra-fluor Plus, Tecan, Männedorf, Switzerland) with excitation and emission wavelength of 485 and 528 nm, respectively. […]
(§3) Cells were harvested and resuspended in 600 μL of FACS buffer (PBS buffer containing 10 % FBS). […] The DAPI signal and BFP fluorescence were detected with 405 nm excitation and 450 nm emission. The eGFP and ATTO488 fluorescence was assayed with 488 nm excitation and 530 nm emission. The ATTO647N fluorescence was assayed with 640 nm excitation and 670 nm emission. Ten thousand of isolated live cells were counted and evaluated. The data were analyzed using FlowJo 7.6.5 by FlowJo, LLC (Becton, Dickinson and Company, USA).
(§4) Cell viability was determined using an MTT assay. […]
(§5) Cellular uptake of Cas9 RNP nanocarriers was evaluated by flow cytometry and confocal laser scanning microscopy (CLSM). […]

HeLa WT cells [3] = assay: Endocytosis pathway study with inhibitors; type: cell-based; details: 1 mM amiloride 2 h, 75 nM RNP, 4 h, flow cytometry
Method: as §1, §2, §3, §4, §5

SMILES: CCCCC/C=C\C/C=C\CCCCCCCC(=O)NCCCC[C@H](NC(=O)CCCCCCC/C=C\C/C=C\CCCCC)C(=O)NCCCC[C@H](NC(=O)c1cc2ccccc2cc1C(=O)NCCNCCNCCNCCNC(=O)[C@H](Cc1ccc(O)cc1)NC(=O)[C@H](Cc1ccc(O)cc1)NC(=O)[C@H](Cc1ccc(O)cc1)NC(=O)[C@@H](N)CCCCN=[N+]=[N-])C(=O)NCCNCCNCCNCCNC(=O)c1cc2ccccc2cc1C(=O)N[C@@H](Cc1ccc(O)cc1)C(=O)N[C@@H](Cc1ccc(O)cc1)C(=O)N[C@@H](Cc1ccc(O)cc1)C(=O)O [Ntp1-LinA]
- nanocarrier size detectability upon dilution [1]: still detectable
- enhanced sgRNA uptake compared to the Stp-based analogue (HeLa WT cells [2]): 7.3 fold
- Cas9 RNP uptake after pretreatment with amiloride (macropinocytosis) (HeLa WT cells [3]): blocked

Reference: paper PMC10360056, “Chemical Evolution of Amphiphilic Xenopeptides for Potentiated Cas9 Ribonucleoprotein Delivery” (Journal of the American Chemical Society, 2023)
